From patent US8476229B2, “Blood sugar-modulating polypeptides” (China Medical University, priority 2008, dated 2013)

Tested on: normal mice (BALB/c)
Assay: Glucose challenge after oral administration of polypeptide, normal mice; blood sugar value by blood sugar meter
Assay type: in vivo
Conditions: 50 mg/kg-body weight oral; for Inhibition Rate (%) toward the blood sugar values: BALB/c fasted 18 hrs, 4 g/kg glucose i.p. after 15 minutes, blood sugar after 180 minutes, relative to water control; for effect of reducing the blood sugar values (in words): BALB/c, comment on Tables 4 and 5
Description: The following materials were adopted in the examples: • (A) Experimental subjects: two strains of mice, BALB/c (the metabolism of blood sugar is normal) and ob/ob (spontaneous diabetes type 2), were used to conduct experiments, and they were provided by the National Laboratory Animal Center, Taiwan. • (B) Polypeptides: polypeptides with amino acid sequences shown in Table 1 were produced by the solid phase synthesis method.
Five normal mice (BALB/c) in each of the nine groups fasted for 18 hrs, and then, respectively, a solution (20 μL) of 50 mg/kg-body weight of the polypeptide of SEQ ID NO: 1, a solution (20 μL) of 50 mg/kg-body weight of the polypeptide of SEQ ID NO: 2, a solution (20 μL) of 50 mg/kg-body weight of the polypeptide of SEQ ID NO: 3, a solution (20 μL) of 50 mg/kg-body weight of the polypeptide of SEQ ID NO: 4, a solution (20 μL) of 50 mg/kg-body weight of the polypeptide of SEQ ID NO: 5, a solution (20 μL) of 50 mg/kg-body weight of the polypeptide of SEQ ID NO: 6, a solution (20 μL) of 50 mg/kg-body weight of the polypeptide of SEQ ID NO: 7, a solution (20 μL) of 50 mg/kg-body weight of the polypeptide of SEQ ID NO: 8, or a solution (20 μL) of 50 mg/kg-body weight of the polypeptide of SEQ ID NO:9, was given to each mouse of each group of the experimental group by oral administration, while in the control group (five mice), each mouse was given water (20 μL). After 15 minutes, a solution of 4 g/kg-body weight of glucose was injected into the peritoneal cavity of each mouse to rapidly raise the blood sugar value of each mouse. After 180 minutes, the blood of each mouse was extracted from its tails, and the blood sugar value was determined by a blood sugar meter (Accu-Check Advantage, Roche, Germany). The blood sugar values of the mice of the experimental group were compared with those of the control group and were analyzed to obtain the relative inhibition rate of each of the polypeptides toward the blood sugar values, as shown in Table 4.
Five normal mice (BALB/c) in each of two groups fasted for 18 hrs, and then, respectively, a solution (20 μL) of 50 mg/kg-body weight of the polypeptide of SEQ ID NO: 10, or a solution (20 μL) of 50 mg/kg-body weight of the polypeptide of SEQ ID NO:11, was given to each mouse of each group of the experimental group by oral administration, while in the control group (five mice), each mouse was given water (20 μL). After 15 minutes, a solution of 4 g/kg-body weight of glucose was injected into the peritoneal cavity of each mouse to rapidly raise the blood sugar value of each mouse. After 180 minutes, the blood of each mouse was extracted from its tails, and the blood sugar value was determined by a blood sugar meter (Accu-Check Advantage, Roche, Germany). The blood sugar values of the mice of the experimental group were compared with those of the control group and were analyzed to obtain a relative inhibition rate of the polypeptides of SEQ ID NO:10 and SEQ ID NO:11 toward the blood sugar values, as shown in Table 5.

Row | Sequence | Inhibition Rate (%) toward the blood sugar values [%] | effect of reducing the blood sugar values (in words) | Inhibition Rate (%) toward the blood sugar values (50 mg/kg) [%] | Inhibition Rate (%) toward the blood sugar values (listed as SEQ ID NO:11, 50 mg/kg)
1 | DENRVRIWVDTVAKTPTIG (ORYZA SATIVA) [SEQ ID NO: 9] | 60.2 ± 14.1 | better effect of reducing the blood sugar values | – | –
2 | RVRIWVNKRGLVVSPPRIG (CUCURBITA MAXIMA) [SEQ ID NO: 1] | 15.7 ± 6.9 | – | – | –
3 | RVRVWVDEIRIVVRNPTAG (ARABIDOPSIS THALIANA) [SEQ ID NO: 8] | 25.5 ± 8.6 | – | – | –
4 | RVRVWVDENGIVISVPTIG (VITIS VINIFERA) [SEQ ID NO: 5] | 30.2 ± 31.3 | – | – | –
5 | RVRVWVDENGIVTRVPVIG (SAMBUCUS NIGRA) [SEQ ID NO: 7] | 56.3 ± 2.6 | better effect of reducing the blood sugar values | – | –
6 | RVRVWVDSYGIVSMVPKIG (VITIS VINIFERA) [SEQ ID NO: 4] | 67.8 ± 9.1 | better effect of reducing the blood sugar values | – | –
7 | RVRVWVNKKGKVIRVPRIG (CITRUS PARADISI) [SEQ ID NO: 6] | 26.2 ± 3.1 | – | – | –
8 | RVRVWVTERGIVAR (MOMORDICA …) [SEQ ID NO: 10] | 34.5 ± 8.8 | can reduce the blood sugar values of the normal mice efficiently | – | –
9 | RVRVWVTERGIVARPPTIG (MOMORDICA …) [SEQ ID NO: 11] | – | can reduce the blood sugar values of the normal mice efficiently | 51.9 ± 19.4 | about 50%
10 | RVWVWINKDEIVYQVPTIG (MEDICAGO TRUNCATULA) [SEQ ID NO: 3] | 52.5 ± 14.9 | – | – | –
11 | RVWVWVNSKGIVIRTPIIT (ZINNIA ELEGANS) [SEQ ID NO: 2] | 24.5 ± 2.3 | – | – | –
